Tests used:
[1] = system: 297L1 cell-derived pancreatic progenitor cells (passage number: 7); assay: Differentiation induction of insulin-producing cells from proliferated pancreatic progenitor cells, NKX6.1/INSULIN immunofluorescence staining; assay type: cell-based, human; conditions: cultured 9 days in IMEM-option Zn++ medium with 1% B-27; FIG. 9
Description: Study was made on whether the proliferated and repetitively passaged pancreatic progenitor cells would have the ability to differentiate into INSULIN-producing cells. The cells used were 297L1 cell-derived pancreatic progenitor cells (passage number: 7). The pancreatic progenitor cells brought to a single cell state using Accutase were inoculated at 6×10^4 cells/well to a 96-well plate coated with Matrigel. The culture solution used was IMEM-option Zn^++ medium (containing 1% B-27®) supplemented with XAV939 (1 μM), Y27632 (10 μM), and bFGF (50 ng/ml). The cells were cultured for 2 days to render the cell density confluent. Then, the cells were washed with IMEM-option Zn^++ medium and then cultured for 9 days using IMEM-option Zn^++ medium (containing 1% B-27®) supplemented with ALKS inhibitor II. […] 4% PFA was added to the cells thus cultured, and the cells were fixed at room temperature for 30 minutes. The cells were further reacted with an anti-NKX6.1 antibody and an anti-INSULIN antibody (DAKO, A0564) as primary antibodies and further with an Alexa 488-labeled secondary antibody or an Alexa 568-labeled secondary antibody as a secondary antibody, sequentially, and then observed under a fluorescence microscope.

[2] = system: 297L1 cell-derived pancreatic progenitor cells (passage number: 7); conditions: Stem Cell Research 2012, 8, 274-284; cited from earlier work
[3] = system: PDX1-positive cells differentiation-induced from human iPS cell line 253G1; assay: Induction of pancreatic progenitor cells from PDX1-positive cells (253G1 iPS-derived), anti-PDX1/anti-NKX6.1 immunofluorescence staining; assay type: cell-based; conditions: cultured 7 days, IMEM-option Zn++ medium with 1% B-27; XAV939 1 μM and/or bFGF 100 ng/ml; FIG. 1
Procedure: The PDX1-positive cells differentiation-induced on a Matrigel-coated dish according to Reference Example 1 were washed with IMEM-option Zn^++ medium and then further cultured for 7 days in IMEM-option Zn^++ medium (containing 1% B-27®) supplemented with XAV939 (1 μM) and/or bFGF (100 ng/ml) (PeproTech, Inc.).
In order to examine the expression of PDX1 and NKX6.1 proteins in the cells thus cultured, immunofluorescence staining was carried out using an anti-PDX1 antibody and an anti-NKX6.1 antibody. […] Then, the cells were reacted with an anti-PDX1 antibody (AF2419, R&D Systems, Inc.) and an anti-NKX6.1 antibody (55F55A12-c, Developmental Studies Hybridoma Bank) as primary antibodies and further with an Alexa 488-labeled secondary antibody or an Alexa 568-labeled secondary antibody (both from Life Technologies Corp.) as a secondary antibody, sequentially, and then observed under a fluorescence microscope.
The PDX1-positive cells differentiation-induced on a Matrigel-coated dish according to Reference Example 1 were washed with IMEM-option Zn^++ medium. […] The cells thus cultured were subjected to the immunofluorescence staining described in Example 1 and observed under a fluorescence microscope.

Row | Molecule | appearance of INSULIN-positive cells [1] | induction of INSULIN-positive cells [2] | cells expressing PDX1 and NKX6.1 (immunofluorescence staining) [3]
1 | Cc1cccc(-c2[nH]ncc2-c2ccc3ncccc3n2)n1 [ALKS inhibitor II] | INSULIN-positive cells appeared | known to induce INSULIN-positive cells | 
2 | O=c1[nH]c(-c2ccc(C(F)(F)F)cc2)nc2c1CSCC2 [XAV939, 2-(4-trifluoromethylphenyl)-7,8-dihydro-5H-thiopyrano[4,3-d]pyrimidin-4(3H)-one] |  |  | cells coexpressing PDX1 and NKX6.1 were few in number
3 | bFGF: FGF signal transduction activator, bFGF (FGF2) |  |  | cells coexpressing PDX1 and NKX6.1 were few in number
